# Results published in article PMC9127186, “Molecular Basis Underlying Hepatobiliary and Renal Excretion of Phenolic Acids of Salvia miltiorrhiza Roots (Danshen)” (Frontiers in Pharmacology, 2022).
# Assays:
# [1] = molecular target: T1, rat Oct3 (Rattus norvegicus, UniProt O88446); assay: Cellular transport assay, HEK-293 cells expressing rat Oct3; conditions: positive substrate 20 μM, 10 min; rat Oct3
# T1 sequence (O88446 1-551): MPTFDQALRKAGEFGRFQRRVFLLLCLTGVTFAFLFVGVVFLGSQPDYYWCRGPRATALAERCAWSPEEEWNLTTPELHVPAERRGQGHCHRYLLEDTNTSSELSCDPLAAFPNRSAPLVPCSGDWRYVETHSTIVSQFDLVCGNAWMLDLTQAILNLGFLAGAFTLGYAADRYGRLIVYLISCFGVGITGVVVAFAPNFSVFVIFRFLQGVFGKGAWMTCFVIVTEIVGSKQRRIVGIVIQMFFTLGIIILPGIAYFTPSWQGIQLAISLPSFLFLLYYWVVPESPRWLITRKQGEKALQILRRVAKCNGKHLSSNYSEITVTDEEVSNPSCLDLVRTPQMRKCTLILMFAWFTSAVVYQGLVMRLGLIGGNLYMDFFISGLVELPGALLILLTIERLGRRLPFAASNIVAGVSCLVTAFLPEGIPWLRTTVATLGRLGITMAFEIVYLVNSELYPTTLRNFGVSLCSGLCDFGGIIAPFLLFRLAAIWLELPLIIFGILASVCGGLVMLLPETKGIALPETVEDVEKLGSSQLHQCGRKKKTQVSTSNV
# [2] = molecular target: T2, human OCT3 (Homo sapiens, UniProt O75751); assay: Cellular transport assay, HEK-293 cells expressing human OCT3; conditions: positive substrate 20 μM, 10 min; human OCT3
# T2 sequence (O75751 1-556): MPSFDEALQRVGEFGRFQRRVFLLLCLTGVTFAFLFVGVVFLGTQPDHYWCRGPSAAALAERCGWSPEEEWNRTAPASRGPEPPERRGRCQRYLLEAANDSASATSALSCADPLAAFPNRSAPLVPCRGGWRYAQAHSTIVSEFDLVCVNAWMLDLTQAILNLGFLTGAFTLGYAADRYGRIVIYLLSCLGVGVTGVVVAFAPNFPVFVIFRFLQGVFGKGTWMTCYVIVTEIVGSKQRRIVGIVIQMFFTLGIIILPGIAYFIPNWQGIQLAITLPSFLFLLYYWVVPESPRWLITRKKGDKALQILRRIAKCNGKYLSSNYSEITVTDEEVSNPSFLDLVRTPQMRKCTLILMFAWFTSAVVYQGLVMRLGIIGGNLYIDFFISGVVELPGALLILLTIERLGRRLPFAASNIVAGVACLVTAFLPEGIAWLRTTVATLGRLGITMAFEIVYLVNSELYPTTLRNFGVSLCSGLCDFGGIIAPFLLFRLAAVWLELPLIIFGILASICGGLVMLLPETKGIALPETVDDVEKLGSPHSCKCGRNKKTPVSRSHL
# [3] = molecular target: T3, rat Octn2 (Rattus norvegicus, UniProt O70594); assay: Cellular transport assay, HEK-293 cells expressing rat Octn2; conditions: positive substrate 20 μM, 10 min; rat Octn2
# T3 sequence (O70594 1-557): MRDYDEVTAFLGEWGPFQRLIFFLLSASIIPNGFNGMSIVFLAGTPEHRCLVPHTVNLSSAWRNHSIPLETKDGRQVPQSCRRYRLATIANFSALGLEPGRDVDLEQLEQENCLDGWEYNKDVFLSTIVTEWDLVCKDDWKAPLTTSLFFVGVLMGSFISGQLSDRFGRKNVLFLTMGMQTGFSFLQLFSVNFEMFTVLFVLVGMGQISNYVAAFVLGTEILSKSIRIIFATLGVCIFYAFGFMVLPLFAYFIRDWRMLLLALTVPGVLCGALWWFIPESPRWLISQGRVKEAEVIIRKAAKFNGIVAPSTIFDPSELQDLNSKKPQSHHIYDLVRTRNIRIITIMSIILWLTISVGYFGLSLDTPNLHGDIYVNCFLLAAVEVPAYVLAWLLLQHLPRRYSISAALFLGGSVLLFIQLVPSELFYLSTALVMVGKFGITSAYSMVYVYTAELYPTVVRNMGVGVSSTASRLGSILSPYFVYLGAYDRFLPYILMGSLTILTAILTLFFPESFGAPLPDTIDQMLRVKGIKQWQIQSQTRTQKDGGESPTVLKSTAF
smiles,measurement,setting,value
"CC[N+](CC)(CC)CC [TEA, tetraethylammonium, reference compound]","TransportTC/TransportMC ratio, positive substrate",[1],3.90 ± 0.88 (TEA)
same,"TransportTC/TransportMC ratio, positive substrate",[2],4.45 ± 0.27 (TEA)
same,"TransportTC/TransportMC ratio, positive substrate",[3],9.85 ± 0.74 (TEA)
